Our source for the IC50 values is patent publication US7704995B2 (Exelixis, Inc., priority 2003, dated 2010).

Bounds are passed on as bounds.

The target in the test is T1, Chk1 (Homo sapiens, UniProt O14757).
T1 construct: purchased Upstate Biotechnology
T1 sequence (O14757 1-476): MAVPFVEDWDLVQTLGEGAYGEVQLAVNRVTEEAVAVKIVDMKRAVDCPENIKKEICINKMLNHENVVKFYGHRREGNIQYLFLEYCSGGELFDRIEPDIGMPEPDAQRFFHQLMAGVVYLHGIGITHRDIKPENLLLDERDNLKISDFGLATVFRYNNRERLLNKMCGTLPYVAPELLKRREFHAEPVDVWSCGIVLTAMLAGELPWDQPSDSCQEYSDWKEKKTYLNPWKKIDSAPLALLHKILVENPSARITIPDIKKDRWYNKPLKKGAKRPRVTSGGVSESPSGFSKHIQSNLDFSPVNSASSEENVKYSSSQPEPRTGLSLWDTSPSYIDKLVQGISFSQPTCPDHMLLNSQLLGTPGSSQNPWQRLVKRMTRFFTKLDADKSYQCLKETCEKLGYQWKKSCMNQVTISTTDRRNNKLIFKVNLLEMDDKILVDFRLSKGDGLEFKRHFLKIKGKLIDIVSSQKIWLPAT
Put plainly: Chk1 kinase assay: incorporation of γ-33P ATP into immobilized myelin basic protein. Type of test: biochemical. The following applies: Table 11, Chk1 only; class symbols A-D; read-out: Chk1 IC50. In short, it runs like this:
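Chk1 (10 nM) or Chk2 (20 nM) phosphorylated plate-immobilized myelin basic protein for 1 h at room temperature in Hepes pH 7.6 buffer with MgCl2, DTT, 1% DMSO, γ-33P ATP plus 10 μM (Chk1) or 30 μM (Chk2) unlabeled ATP. Bound radioactivity counted by scintillation; IC50 determined, Ki derivable from IC50.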
As for `Nc1ncc(-c2cccc(C(=O)NCc3cccc(F)c3F)c2)nc1C(=O)N[C@H]1CCCNC1` [Example 1017, 3-amino-6-[3-({[(2,3-difluorophenyl)methyl]amino}carbonyl)phenyl]-N-[(3S)-piperidin-3-yl]pyrazine-2-carboxamide], the half-inhibitory concentration (IC50) (as a rule, the concentration that inhibits the measured activity by half) was less than 50 nM. Next, `Cc1ccc(CNC(=O)c2cccc(-c3cnc(N)c(C(=O)N[C@H]4CCCNC4)n3)c2)cc1F` [Example 1018, 3-amino-6-[3-({[(3-fluoro-4-methylphenyl)methyl]amino}carbonyl)phenyl]-N-[(3S)-piperidin-3-yl]pyrazine-2-carboxamide]: less than 50 nM; `Nc1ncc(-c2cccc(C(=O)NCc3c(F)ccc(Cl)c3F)c2)nc1C(=O)N[C@H]1CCCCNC1` [Example 1019, 3-amino-N-[(3S)-azepan-3-yl]-6-[3-({[(3-chloro-2,6-difluorophenyl)methyl]amino}carbonyl)phenyl]pyrazine-2-carboxamide]: less than 50 nM; `Nc1ncc(-c2cccc(C(=O)NCc3ccc4c(c3)OCCO4)c2)nc1C(=O)N[C@H]1CCCCNC1` [Example 1020, 3-amino-N-[(3S)-azepan-3-yl]-6-(3-{[(2,3-dihydro-1,4-benzodioxin-6-ylmethyl)amino]carbonyl}phenyl)pyrazine-2-carboxamide]: less than 50 nM. For `Nc1ncc(-c2cccc(C(=O)NCc3c(F)cccc3Cl)c2)nc1C(=O)N[C@H]1CCCCNC1` [Example 1021, 3-amino-N-[(3S)-azepan-3-yl]-6-[3-({[(2-chloro-6-fluorophenyl)methyl]amino}carbonyl)phenyl]pyrazine-2-carboxamide], the IC50 is less than 50 nM. For the compound `Nc1ncc(-c2cccc(C(=O)NCc3c(F)cccc3F)c2)nc1C(=O)N[C@H]1CCCCNC1` [Example 1022, 3-amino-N-[(3S)-azepan-3-yl]-6-[3-({[(2,6-difluorophenyl)methyl]amino}carbonyl)phenyl]pyrazine-2-carboxamide], the half-maximal inhibitory concentration (IC50) is less than 50 nM. As for `Nc1ncc(-c2cccc(C(=O)NCc3ccc(F)c(Cl)c3)c2)nc1C(=O)N[C@H]1CCCCNC1` [Example 1023, 3-amino-N-[(3S)-azepan-3-yl]-6-[3-({[(3-chloro-4-fluorophenyl)methyl]amino}carbonyl)phenyl]pyrazine-2-carboxamide], the IC50 is less than 50 nM. Take `Nc1ncc(-c2cccc(C(=O)NCc3cccc(Cl)c3F)c2)nc1C(=O)N[C@H]1CCCCNC1` [Example 1024, 3-amino-N-[(3S)-azepan-3-yl]-6-[3-({[(3-chloro-2-fluorophenyl)methyl]amino}carbonyl)phenyl]pyrazine-2-carboxamide]: the IC50 is less than 50 nM. On to `Cc1c(Cl)cccc1CNC(=O)c1cccc(-c2cnc(N)c(C(=O)N[C@H]3CCCNC3)n2)c1` [Example 1025, 3-amino-6-[3-({[(3-chloro-2-methylphenyl)methyl]amino}carbonyl)phenyl]-N-[(3S)-piperidin-3-yl]pyrazine-2-carboxamide], for which the IC50 was less than 50 nM. `COc1cccc(OC)c1CNC(=O)c1cccc(-c2cnc(N)c(C(=O)N[C@H]3CCCNC3)n2)c1` [Example 1026, 3-amino-6-{3-[({[2,6-bis(methyloxy)phenyl]methyl}amino)carbonyl]phenyl}-N-[(3S)-piperidin-3-yl]pyrazine-2-carboxamide]: the concentration for half-maximal inhibition (IC50) was in the range of 50 to 1000 nM.

Regarding `Nc1ncc(-c2cccc(C(=O)NCc3ccc(F)c(Br)c3)c2)nc1C(=O)N[C@H]1CCCNC1` [Example 1027, 3-amino-6-[3-({[(3-bromo-4-fluorophenyl)methyl]amino}carbonyl)phenyl]-N-[(3S)-piperidin-3-yl]pyrazine-2-carboxamide], the IC50 is less than 50 nM. Next, `Nc1ncc(-c2cccc(C(=O)NCc3cc(F)c(F)c(F)c3)c2)nc1C(=O)N[C@H]1CCCNC1` [Example 1028, 3-amino-N-[(3S)-piperidin-3-yl]-6-[3-({[(3,4,5-trifluorophenyl)methyl]amino}carbonyl)phenyl]pyrazine-2-carboxamide]: less than 50 nM. As for `Cc1cc(CNC(=O)c2cccc(-c3cnc(N)c(C(=O)N[C@H]4CCCNC4)n3)c2)ccc1F` [Example 1029, 3-amino-6-[3-({[(4-fluoro-3-methylphenyl)methyl]amino}carbonyl)phenyl]-N-[(3S)-piperidin-3-yl]pyrazine-2-carboxamide], the IC50 was less than 50 nM. For the compound `Nc1ncc(-c2cccc(C(=O)NCc3cc(F)cc(F)c3F)c2)nc1C(=O)N[C@H]1CCCNC1` [Example 1030, 3-amino-N-[(3S)-piperidin-3-yl]-6-[3-({[(2,3,5-trifluorophenyl)methyl]amino}carbonyl)phenyl]pyrazine-2-carboxamide], the half-maximal inhibitory concentration (IC50) is less than 50 nM.

`Cc1ccc(F)cc1CNC(=O)c1cccc(-c2cnc(N)c(C(=O)N[C@H]3CCCNC3)n2)c1` [Example 1031, 3-amino-6-[3-({[(5-fluoro-2-methylphenyl)methyl]amino}carbonyl)phenyl]-N-[(3S)-piperidin-3-yl]pyrazine-2-carboxamide]: the IC50 was less than 50 nM. Next, `Nc1ncc(-c2cccc(C(=O)NCc3cc(F)cc(Br)c3)c2)nc1C(=O)N[C@H]1CCCNC1` [Example 1032, 3-amino-6-[3-({[(3-bromo-5-fluorophenyl)methyl]amino}carbonyl)phenyl]-N-[(3S)-piperidin-3-yl]pyrazine-2-carboxamide]: less than 50 nM; `Nc1ncc(-c2cccc(C(=O)NCc3ccc(-n4cccn4)cc3)c2)nc1C(=O)N[C@H]1CCCNC1` [Example 1033, 3-amino-N-[(3S)-piperidin-3-yl]-6-{3-[({[4-(1H-pyrazol-1-yl)phenyl]methyl}amino)carbonyl]phenyl}pyrazine-2-carboxamide]: less than 50 nM; `Nc1ncc(-c2cccc(C(=O)NCc3cccc(-c4ccccc4)c3)c2)nc1C(=O)N[C@H]1CCCNC1` [Example 1034, 3-amino-6-(3-{[(biphenyl-3-ylmethyl)amino]carbonyl}phenyl)-N-[(3S)-piperidin-3-yl]pyrazine-2-carboxamide]: less than 50 nM. Turning to `Cc1ccccc1CNC(=O)c1cccc(-c2cnc(N)c(C(=O)N[C@H]3CCCNC3)n2)c1` [Example 1035, 3-amino-6-[3-({[(2-methylphenyl)methyl]amino}carbonyl)phenyl]-N-[(3S)-piperidin-3-yl]pyrazine-2-carboxamide], the IC50 is less than 50 nM. In the case of `Cc1ccc(C)c(CNC(=O)c2cccc(-c3cnc(N)c(C(=O)N[C@H]4CCCNC4)n3)c2)c1` [Example 1036, 3-amino-6-[3-({[(2,5-dimethylphenyl)methyl]amino}carbonyl)phenyl]-N-[(3S)-piperidin-3-yl]pyrazine-2-carboxamide], the half-inhibitory concentration (IC50) was less than 50 nM. As for `Cc1cc(C)cc(CNC(=O)c2cccc(-c3cnc(N)c(C(=O)N[C@H]4CCCNC4)n3)c2)c1` [Example 1037, 3-amino-6-[3-({[(3,5-dimethylphenyl)methyl]amino}carbonyl)phenyl]-N-[(3S)-piperidin-3-yl]pyrazine-2-carboxamide], the IC50 is less than 50 nM.

Turning to `Cc1ccc(CNC(=O)c2cccc(-c3cnc(N)c(C(=O)N[C@H]4CCCNC4)n3)c2)c(C)c1` [Example 1038, 3-amino-6-[3-({[(2,4-dimethylphenyl)methyl]amino}carbonyl)phenyl]-N-[(3S)-piperidin-3-yl]pyrazine-2-carboxamide], the IC50 was less than 50 nM. Next, `COc1cccc(CNC(=O)c2cccc(-c3cnc(N)c(C(=O)N[C@H]4CCCNC4)n3)c2)c1` [Example 1039, 3-amino-6-[3-({[(3-methoxyphenyl)methyl]amino}carbonyl)phenyl]-N-[(3S)-piperidin-3-yl]pyrazine-2-carboxamide]: less than 50 nM; `Nc1ncc(-c2cccc(C(=O)NCc3ccccc3)c2)nc1C(=O)N[C@H]1CCCNC1` [Example 1040, 3-amino-6-{3-[({[phenyl]methyl}amino)carbonyl]phenyl}-N-[(3S)-piperidin-3-yl]pyrazine-2-carboxamide]: less than 50 nM; `COc1cc(CNC(=O)c2cccc(-c3cnc(N)c(C(=O)N[C@H]4CCCNC4)n3)c2)cc(OC)c1` [Example 1041, 3-amino-6-{3-[({[3,5-bis(methyloxy)phenyl]methyl}amino)carbonyl]phenyl}-N-[(3S)-piperidin-3-yl]pyrazine-2-carboxamide]: less than 50 nM. Next, `COc1ccc(CNC(=O)c2cccc(-c3cnc(N)c(C(=O)N[C@H]4CCCNC4)n3)c2)cc1OC` [Example 1042, 3-amino-6-{3-[({[3,4-bis(methyloxy)phenyl]methyl}amino)carbonyl]phenyl}-N-[(3S)-piperidin-3-yl]pyrazine-2-carboxamide]: less than 50 nM.
